From patent US8148391B2 (Cephalon, Inc., priority 2006, dated 2012) come the findings set out here.

Some results are limits rather than exact numbers.

Experiment [1] has as its target T1, c-Met (cytoplasmic domain) (Homo sapiens, UniProt P08581).
T1 construct: 10 ng/mL c-Met (cytoplasmic domain, Invitrogen Corporation #PV3143); purchased Invitrogen Corporation PV3143
As to the kind of experiment: c-Met Kinase Assay (same methods as for ALK, with modifications). Type of experiment: biochemical. Particulars: 1 μM ATP (Km level), 10 ng/mL c-Met; read-out: cMet Activity (c-Met kinase inhibition, IC50 class). The procedure, abridged: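 IC50 values were fitted by variable-slope sigmoidal regression of percent inhibition against log compound concentration. Phosphorylation was read with Eu-N1 PT66 antibody after a 15 min, 37 °C reaction. The reaction was initiated with 10 ng/mL c-Met cytoplasmic domain on wells coated with 10 μg/mL PLC-γ in TBS.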

Experiment [2] deals with T2, baculovirus-expressed ALK (Homo sapiens, UniProt Q9UM73).
T2 construct: host or cells: baculovirus expression system
Put plainly: ALK Kinase Assay (ELISA-type, time-resolved fluorescence). Type of experiment: biochemical. Particulars: 1 μM ATP (Km level), 30 ng/ml ALK, 37° C., 15 minutes; read-out: ALK Activity (ALK kinase inhibition, IC50 class). The procedure, abridged: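 Wells were coated with phospholipase C-γ at 10 μg/mL in Tris-buffered saline. Adding 30 ng/ml enzyme started the reaction, which ran at 37° C for 15 minutes before Eu-N1 PT66 antibody detection. Percent inhibition versus log10 concentration gave IC50 by variable-slope fit.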
(An ELISA detects its analyte on a solid surface through an enzyme-linked reagent.)

T1 sequence (P08581 956-1390 limits assumed): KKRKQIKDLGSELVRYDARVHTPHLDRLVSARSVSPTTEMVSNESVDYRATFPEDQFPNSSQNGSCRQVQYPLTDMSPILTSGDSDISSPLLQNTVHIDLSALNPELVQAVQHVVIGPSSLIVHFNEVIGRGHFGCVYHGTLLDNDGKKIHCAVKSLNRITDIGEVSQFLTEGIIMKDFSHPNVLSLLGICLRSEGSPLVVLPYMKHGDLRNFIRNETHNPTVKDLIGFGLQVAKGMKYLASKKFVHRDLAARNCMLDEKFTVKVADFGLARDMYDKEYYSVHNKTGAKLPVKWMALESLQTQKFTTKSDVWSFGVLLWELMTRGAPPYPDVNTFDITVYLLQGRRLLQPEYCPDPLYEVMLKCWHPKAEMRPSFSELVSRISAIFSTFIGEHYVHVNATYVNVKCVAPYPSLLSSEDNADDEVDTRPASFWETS
T2 sequence (Q9UM73 19-1620): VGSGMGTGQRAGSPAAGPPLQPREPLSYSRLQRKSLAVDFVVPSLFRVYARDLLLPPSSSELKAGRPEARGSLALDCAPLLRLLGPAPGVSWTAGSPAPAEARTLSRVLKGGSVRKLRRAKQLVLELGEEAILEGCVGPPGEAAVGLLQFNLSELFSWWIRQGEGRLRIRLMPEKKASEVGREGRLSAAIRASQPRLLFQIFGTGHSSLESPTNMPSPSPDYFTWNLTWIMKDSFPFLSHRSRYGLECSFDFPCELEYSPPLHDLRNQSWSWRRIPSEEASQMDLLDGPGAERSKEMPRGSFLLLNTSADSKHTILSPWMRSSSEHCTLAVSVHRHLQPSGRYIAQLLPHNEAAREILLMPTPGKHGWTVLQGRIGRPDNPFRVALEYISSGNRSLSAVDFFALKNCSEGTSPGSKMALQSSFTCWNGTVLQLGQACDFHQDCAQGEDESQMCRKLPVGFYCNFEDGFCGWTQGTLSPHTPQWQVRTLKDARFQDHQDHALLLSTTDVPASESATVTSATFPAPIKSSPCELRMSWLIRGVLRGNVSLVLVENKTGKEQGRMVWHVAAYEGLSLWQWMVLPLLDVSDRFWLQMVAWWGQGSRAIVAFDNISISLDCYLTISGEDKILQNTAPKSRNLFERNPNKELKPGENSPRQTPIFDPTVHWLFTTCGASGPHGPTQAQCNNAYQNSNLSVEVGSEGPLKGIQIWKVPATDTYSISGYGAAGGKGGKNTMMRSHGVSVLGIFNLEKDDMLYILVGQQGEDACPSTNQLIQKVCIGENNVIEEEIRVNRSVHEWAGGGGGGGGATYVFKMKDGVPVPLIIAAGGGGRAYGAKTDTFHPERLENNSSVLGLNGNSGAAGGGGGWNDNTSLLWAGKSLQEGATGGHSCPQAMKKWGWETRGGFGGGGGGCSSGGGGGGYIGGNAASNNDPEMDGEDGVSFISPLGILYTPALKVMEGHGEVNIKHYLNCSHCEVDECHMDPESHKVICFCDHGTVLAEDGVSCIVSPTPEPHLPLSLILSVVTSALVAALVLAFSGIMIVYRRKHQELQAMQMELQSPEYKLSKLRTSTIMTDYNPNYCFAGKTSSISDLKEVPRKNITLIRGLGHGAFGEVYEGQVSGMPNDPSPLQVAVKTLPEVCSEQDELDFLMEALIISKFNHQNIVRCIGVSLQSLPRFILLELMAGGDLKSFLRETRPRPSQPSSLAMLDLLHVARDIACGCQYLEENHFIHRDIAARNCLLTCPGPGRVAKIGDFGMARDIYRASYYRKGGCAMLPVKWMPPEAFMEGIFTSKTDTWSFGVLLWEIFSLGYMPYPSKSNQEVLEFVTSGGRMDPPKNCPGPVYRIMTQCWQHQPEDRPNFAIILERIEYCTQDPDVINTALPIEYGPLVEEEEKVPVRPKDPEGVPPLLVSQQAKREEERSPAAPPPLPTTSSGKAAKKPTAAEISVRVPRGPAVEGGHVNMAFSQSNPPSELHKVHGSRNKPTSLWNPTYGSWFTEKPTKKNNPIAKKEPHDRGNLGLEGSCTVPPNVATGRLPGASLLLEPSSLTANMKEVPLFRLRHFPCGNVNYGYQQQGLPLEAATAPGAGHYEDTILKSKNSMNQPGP

For `COc1cc2c(cc1Nc1ncc(Cl)c(Nc3ccccc3S(=O)(=O)C(C)C)n1)CCC(N1CCOCC1)CC2` (stereo not shown) [Example 1050, 5-Chloro-N*2*-(3-methoxy-7-morpholin-4-yl-6,7,8,9-tetrahydro-5H-benzocyclohepten-2-yl)-N*4*-[2-(propane-2-sulfonyl)-phenyl]-pyrimidine-2,4-diamine], the half-maximal inhibitory concentration (IC50) (commonly the concentration that gives 50% inhibition) in experiment [1] was greater than 10 µM; in experiment [2], less than 0.1 µM.

Turning to `COc1cc2c(cc1Nc1ncc(Cl)c(N[C@@H]3CCCC[C@H]3NS(C)(=O)=O)n1)CCC(N1CCOCC1)CC2` (stereo partly drawn) [Example 1051, N-{(1R,2R)-2-[5-Chloro-2-(3-methoxy-7-morpholin-4-yl-6,7,8,9-tetrahydro-5H-benzocyclohepten-2-ylamino)-pyrimidin-4-ylamino]-cyclohexyl}-methanesulfonamide], the IC50 in experiment [1] was greater than 10 µM; in experiment [2], less than 0.1 µM.

In the case of `COc1cc2c(cc1Nc1ncc(Cl)c(Nc3ccccc3-n3cccn3)n1)CCC(N1CCOCC1)CC2` (stereo not shown) [Example 1052, 5-Chloro-N*2*-(3-methoxy-7-morpholin-4-yl-6,7,8,9-tetrahydro-5H-benzocyclohepten-2-yl)-N*4*-(2-pyrazol-1-yl-phenyl)-pyrimidine-2,4-diamine], the results for the IC50 in experiment [1] and in experiment [2] were greater than 10 µM and less than 0.1 µM, respectively.

For the compound `COc1cc2c(cc1Nc1ncc(Cl)c(Nc3ccccc3S(=O)(=O)N(C)C)n1)CCC(NCC(F)F)CC2` (stereo not shown) [Example 1055, 2-{5-Chloro-2-[7-(2,2-difluoro-ethylamino)-3-methoxy-6,7,8,9-tetrahydro-5H-benzocyclohepten-2-ylamino]-pyrimidin-4-ylamino}-N,N-dimethyl-benzenesulfonamide], the values for the half-inhibitory concentration (IC50) in experiment [1] and in experiment [2] were greater than 10 µM and less than 0.1 µM, respectively.

In the case of `COc1cc2c(cc1Nc1ncc(Cl)c(Nc3ccccc3S(=O)(=O)C(C)C)n1)CCC(NCC(F)F)CC2` (stereo not shown) [Example 1056, 5-Chloro-N*2*-[7-(2,2-difluoro-ethylamino)-3-methoxy-6,7,8,9-tetrahydro-5H-benzocyclohepten-2-yl]-N*4*-[2-(propane-2-sulfonyl)-phenyl]-pyrimidine-2,4-diamine], the IC50 is 1 to 10 µM in experiment [1] and less than 0.1 µM in experiment [2].

On to `COc1cc2c(cc1Nc1ncc(Cl)c(Nc3ccccc3-n3cccn3)n1)CCC(NCC(F)F)CC2` (stereo not shown) [Example 1059, 5-Chloro-N*2*-[7-(2,2-difluoro-ethylamino)-3-methoxy-6,7,8,9-tetrahydro-5H-benzocyclohepten-2-yl]-N*4*-(2-pyrazol-1-yl-phenyl)-pyrimidine-2,4-diamine], for which the IC50 in experiment [1] was greater than 10 µM; in experiment [2], less than 0.1 µM.

Take `COCCN1CCc2ccc(Nc3ncc(Cl)c(Nc4c(OC)cccc4C(=O)NCCC#N)n3)cc2CC1` [Example 1060, 2-{5-Chloro-2-[3-(2-methoxy-ethyl)-2,3,4,5-tetrahydro-1H-benzo[d]azepin-7-ylamino]-pyrimidin-4-ylamino}-N-(2-cyano-ethyl)-3-methoxy-benzamide]: the IC50 in experiment [1] and in experiment [2] was 1 to 10 µM in each case.

Take `COc1cccc(C(=O)NCCC#N)c1Nc1nc(Nc2ccc3c(c2)C(C)(C)CCC(=O)N3)ncc1Cl` [Example 1061, 2-[5-Chloro-2-(5,5-dimethyl-2-oxo-2,3,4,5-tetrahydro-1H-benzo[b]azepin-7-ylamino)-pyrimidin-4-ylamino]-N-(2-cyano-ethyl)-3-methoxy-benzamide]: the figures for the IC50 in experiment [1] and in experiment [2] were 1 to 10 µM and greater than 10 µM, respectively.

As to `COc1cccc(C(=O)NCCC#N)c1Nc1nc(Nc2ccc3c(c2)CCCC(=O)N3C)ncc1Cl` [Example 1062, 2-[5-Chloro-2-(1-methyl-2-oxo-2,3,4,5-tetrahydro-1H-benzo[b]azepin-7-ylamino)-pyrimidin-4-ylamino]-N-(2-cyano-ethyl)-3-methoxy-benzamide], the results for the IC50 in experiment [1] and in experiment [2] were 1 to 10 µM and greater than 10 µM, respectively.

With `COCCN1CCc2ccc(Nc3ncc(Cl)c(Nc4c(OC)cccc4C(=O)NCC#N)n3)cc2CC1` [Example 1063, 2-{5-Chloro-2-[3-(2-methoxy-ethyl)-2,3,4,5-tetrahydro-1H-benzo[d]azepin-7-ylamino]-pyrimidin-4-ylamino}-N-cyanomethyl-3-methoxy-benzamide], the IC50 in experiment [1] fell in the range of 0.1 to 1 µM; in experiment [2] it was 1 to 10 µM.

For `COc1cccc(C(=O)NCC#N)c1Nc1nc(Nc2ccc3c(c2)C(C)(C)CCC(=O)N3)ncc1Cl` [Example 1064, 2-[5-Chloro-2-(5,5-dimethyl-2-oxo-2,3,4,5-tetrahydro-1H-benzo[b]azepin-7-ylamino)-pyrimidin-4-ylamino]-N-cyanomethyl-3-methoxy-benzamide], the IC50 in experiment [1] and in experiment [2] was 1 to 10 µM each time.

Take `COc1cccc(C(=O)NCC#N)c1Nc1nc(Nc2ccc3c(c2)CCCC(=O)N3C)ncc1Cl` [Example 1065, 2-[5-Chloro-2-(1-methyl-2-oxo-2,3,4,5-tetrahydro-1H-benzo[b]azepin-7-ylamino)-pyrimidin-4-ylamino]-N-cyanomethyl-3-methoxy-benzamide]: the half-maximal inhibitory concentration (IC50) in experiment [1] was 0.1 to 1 µM; in experiment [2], greater than 10 µM.

On to `COc1ccc2c(c1Nc1ncc(Cl)c(N[C@@H]3CCCC[C@H]3NS(C)(=O)=O)n1)CCC(N1CCOCC1)CC2` (stereo partly drawn) [Example 1070, N-{(1R,2R)-2-[5-Chloro-2-(2-methoxy-7-morpholin-4-yl-6,7,8,9-tetrahydro-5H-benzocyclohepten-1-ylamino)-pyrimidin-4-ylamino]-cyclohexyl}-methanesulfonamide], for which the IC50 in experiment [1] is greater than 10 µM; in experiment [2], 0.1 to 1 µM.

For the compound `COc1ccc2c(c1Nc1ncc(Cl)c(Nc3ccccc3-n3cccn3)n1)CCC(N1CCOCC1)CC2` (stereo not shown) [Example 1071, 5-Chloro-N*2*-(2-methoxy-7-morpholin-4-yl-6,7,8,9-tetrahydro-5H-benzocyclohepten-1-yl)-N*4*-(2-pyrazol-1-yl-phenyl)-pyrimidine-2,4-diamine], the IC50 in experiment [1] was greater than 10 µM; in experiment [2], 0.1 to 1 µM.

Regarding `COc1ccc2c(c1Nc1ncc(Cl)c(Nc3ccccc3S(=O)(=O)N(C)C)n1)CCC(N1CCOCC1)CC2` (stereo not shown) [Example 1072, 2-[5-Chloro-2-(2-methoxy-7-morpholin-4-yl-6,7,8,9-tetrahydro-5H-benzocyclohepten-1-ylamino)-pyrimidin-4-ylamino]-N,N-dimethyl-benzenesulfonamide], the figures for the IC50 in experiment [1] and in experiment [2] were greater than 10 µM and 0.1 to 1 µM, respectively.

Consider `CNC(=O)c1ccccc1Nc1nc(Nc2c(OC)ccc3c2CCC(N2CCOCC2)CC3)ncc1Cl` (stereo not shown) [Example 1073, 2-[5-Chloro-2-(2-methoxy-7-morpholin-4-yl-6,7,8,9-tetrahydro-5H-benzocyclohepten-1-ylamino)-pyrimidin-4-ylamino]-N-methyl-benzamide], for which the results for the IC50 in experiment [1] and in experiment [2] were greater than 10 µM and 0.1 to 1 µM, respectively.

In the case of `COc1ccc2c(c1Nc1ncc(Cl)c(Nc3ccccc3-n3cccn3)n1)CCC(NCC(F)F)CC2` (stereo not shown) [Example 1076, 5-Chloro-N*2*-[7-(2,2-difluoro-ethylamino)-2-methoxy-6,7,8,9-tetrahydro-5H-benzocyclohepten-1-yl]-N*4*-(2-pyrazol-1-yl-phenyl)-pyrimidine-2,4-diamine], the IC50 in experiment [1] is greater than 10 µM; in experiment [2] it was 0.1 to 1 µM.

As for `COc1ccc2c(c1Nc1ncc(Cl)c(Nc3ccccc3S(=O)(=O)N(C)C)n1)CCC(NCC(F)F)CC2` (stereo not shown) [Example 1077, 2-{5-Chloro-2-[7-(2,2-difluoro-ethylamino)-2-methoxy-6,7,8,9-tetrahydro-5H-benzocyclohepten-1-ylamino]-pyrimidin-4-ylamino}-N,N-dimethyl-benzenesulfonamide], the IC50 in experiment [1] is greater than 10 µM; in experiment [2] it was 0.1 to 1 µM.

`CNC(=O)c1ccccc1Nc1nc(Nc2c(OC)ccc3c2CCC(NCC(F)F)CC3)ncc1Cl` (stereo not shown) [Example 1078, 2-{5-Chloro-2-[7-(2,2-difluoro-ethylamino)-2-methoxy-6,7,8,9-tetrahydro-5H-benzocyclohepten-1-ylamino]-pyrimidin-4-ylamino}-N-methyl-benzamide]: the IC50 in experiment [1] was greater than 10 µM; in experiment [2] it was 0.1 to 1 µM.

For the compound `COCCN1CCc2ccc(Nc3ncc(Cl)c(Nc4c(F)cccc4C(=O)NCC#N)n3)cc2CC1` [Example 1079, 2-{5-Chloro-2-[3-(2-methoxy-ethyl)-2,3,4,5-tetrahydro-1H-benzo[d]azepin-7-ylamino]-pyrimidin-4-ylamino}-N-cyanomethyl-3-fluoro-benzamide], the IC50 in experiment [1] and in experiment [2] was less than 0.1 µM in each case.

Turning to `CC1(C)CCC(=O)Nc2cc(Nc3ncc(Cl)c(Nc4c(F)cccc4C(=O)NCC#N)n3)ccc21` [Example 1080, 2-[5-Chloro-2-(5,5-dimethyl-2-oxo-2,3,4,5-tetrahydro-1H-benzo[b]azepin-8-ylamino)-pyrimidin-4-ylamino]-N-cyanomethyl-3-fluoro-benzamide], the IC50 in experiment [1] and in experiment [2] was less than 0.1 µM throughout.

With `COCCNC1CCc2cc(Nc3ncc(Cl)c(Nc4ccccc4S(=O)(=O)N4CCCC4)n3)c(OC)cc2CC1` (stereo not shown) [Example 1081, 5-Chloro-N*2*-[3-methoxy-7-(2-methoxy-ethylamino)-6,7,8,9-tetrahydro-5H-benzocyclohepten-2-yl]-N*4*-[2-(pyrrolidine-1-sulfonyl)-phenyl]-pyrimidine-2,4-diamine], the 50% inhibitory concentration (IC50) is 1 to 10 µM in experiment [1] and less than 0.1 µM in experiment [2].

Take `COCCNC1CCc2cc(Nc3ncc(Cl)c(Nc4ccccc4S(=O)(=O)N4CCC(O)C4)n3)c(OC)cc2CC1` (stereo not shown) [Example 1082, 1-(2-{5-Chloro-2-[3-methoxy-7-(2-methoxy-ethylamino)-6,7,8,9-tetrahydro-5H-benzocyclohepten-2-ylamino]-pyrimidin-4-ylamino}-benzenesulfonyl)-pyrrolidin-3-ol]: the IC50 in experiment [1] is 1 to 10 µM; in experiment [2], less than 0.1 µM.
